Data taken from patent US8883410B2, “Method for determining the stability of organic methyleneamines in the presence of semicarbazide-sensitive amine oxidase” (Sanofi, priority 2007, dated 2014).

Key:
[1] = biological target: T1, human SSAO, full-length, untagged (Homo sapiens, UniProt Q16853); test: Benzylamine stability in lysate of cells expressing full-length SSAO (untagged), LC/MS/MS; assay type: in vitro ADME
T1 construct: expressed in transfected cells; cleared NP-40 cell lysate
T1 sequence (Q16853 1-763): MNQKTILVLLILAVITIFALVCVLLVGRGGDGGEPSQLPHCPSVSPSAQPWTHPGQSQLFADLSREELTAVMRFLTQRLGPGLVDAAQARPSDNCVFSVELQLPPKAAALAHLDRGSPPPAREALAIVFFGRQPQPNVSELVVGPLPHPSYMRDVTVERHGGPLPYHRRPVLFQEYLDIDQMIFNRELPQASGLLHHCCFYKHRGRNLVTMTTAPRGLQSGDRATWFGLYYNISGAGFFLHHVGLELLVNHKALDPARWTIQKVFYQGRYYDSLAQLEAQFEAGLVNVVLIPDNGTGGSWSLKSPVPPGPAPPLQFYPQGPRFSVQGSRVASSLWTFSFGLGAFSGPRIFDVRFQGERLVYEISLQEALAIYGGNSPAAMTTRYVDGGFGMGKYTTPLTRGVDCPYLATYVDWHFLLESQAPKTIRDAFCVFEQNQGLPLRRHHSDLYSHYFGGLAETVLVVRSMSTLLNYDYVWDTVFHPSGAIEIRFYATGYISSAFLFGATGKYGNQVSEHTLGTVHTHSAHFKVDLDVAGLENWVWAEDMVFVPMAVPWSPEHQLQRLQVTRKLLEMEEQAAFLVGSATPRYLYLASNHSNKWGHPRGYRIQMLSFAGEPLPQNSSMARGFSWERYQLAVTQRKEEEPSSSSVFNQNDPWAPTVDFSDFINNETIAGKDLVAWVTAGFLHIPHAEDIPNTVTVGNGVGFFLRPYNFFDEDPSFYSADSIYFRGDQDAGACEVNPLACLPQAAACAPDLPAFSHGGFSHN
Method: (§1) The expression constructs were prepared by cloning these PCR products into the pCDNA5-FRT-To-DEST vector (Invitrogen, Gateway System™). The forward and reverse DNA sequence of each construct was confirmed including expressed sequences and at least 100 base pairs either side of this. Stable cell lines for Flp-In CHO, Flp-In CHO T-Rex, and Flp-In HEK 293 (Invitrogen, Flp-In system™) were generated using these 6 constructs according to manufacturer's instructions. Cells were co-transfected with the regulatory vector, pOG44, and each of the pCDNA5-FRT-To-DEST constructs using Lipfectamine (Invitrogen) according to manufacturer's instructions. Thus, 18 cell lines were generated: CHO Flp-In full-length SSAO; CHO Flp-In full-length SSAO with C-terminal 6×HIS tag; CHO Flp-In T1 SSAO; CHO Flp-In T1 SSAO with C-terminal 6×HIS tag; CHO Flp-In T2 SSAO; CHO Flp-In T2 SSAO with C-terminal 6×HIS tag; CHO T-Rex Flp-In full-length SSAO; CHO T-Rex Flp-In full-length SSAO with C-terminal 6×HIS tag; CHO T-Rex Flp-In T1 SSAO; CHO T-Rex Flp-In T1 SSAO with C-terminal 6×HIS tag; CHO T-Rex Flp-In T2 SSAO; CHO Flp-In T2 SSAO with C-terminal 6×HIS tag; HEK 293 Flp-In full-length SSAO; HEK 293 Flp-In full-length SSAO with C-terminal 6×HIS tag; HEK 293 Flp-In T1 SSAO; HEK 293 Flp-In T1 SSAO with C-terminal 6×HIS tag; HEK 293 Flp-In T2 SSAO; HEK 293 Flp-In T2 SSAO with C-terminal 6×HIS tag.
(§2) Adherent CHO cells were cultured at 37° C., 5% CO2 in media containing Ham's F12, 10% fetal bovine serum, 2 mM L-glutamine, 1% Penicillin/Streptomycin, 300 μM hygromycin B. Adherent HEK 293 cells were cultured at 37° C., 5% CO2 in D-MEM (high glucose), 10% fetal bovine serum, 2 mM L-glutamine, and 200 μM hygromycin B. Stable transformants were identified by loss of zeocin resistance. Once the cells were 80% confluent, SSAO expression was induced by the addition of Tetracycline to 1 μg/mL. Following 18 hours, the cells were harvested using a trypsin treatment of 3 minutes, at room temperature. Cells were washed 3 times in phosphate buffered saline before flash freezing in liquid nitrogen.
(§3) For the preparation of cell lysate for activity testing, frozen cell pellets were resuspended in lysate buffer containing 10 mM Tris-HCl (pH 7.2), 150 mM NaCl, 1.5 mM MgCl2, 1% v/v NP-40 and incubated for 15 minutes on ice. Lysate was cleared by centrifugation 800×g for 10 minutes, 4° C. and stored in aliquots at −80° C. until use. Proteins were determined using Pierce Coomassie Protein Reagent, according to manufacturer's instructions.
(§4) For each assay run, 1 mL of cell lysate (1.5 mg/mL protein) was mixed with benzylamine to 2000 ng/mL final concentration. At each corresponding time point, […] the incubation mixture was transferred to a microcentrifuge tube (1.7 mL) and mixed with 50 μL of acetonitrile. The tubes were vortex mixed briefly to ensure complete mixing and then centrifuged at 10,000×g for 5 minutes. The supernatant was removed and 50 μL was transferred to an autosampler vial and mixed with 50 μL of water before LC/MS/MS analysis. Benzylamine remaining in the lysate was analyzed with LC/MS/MS method.
LC/MS/MS analysis was performed with a PE Sciex API 3000 mass spectrometer under the following conditions listed below and in Tables 1 and 2:
The active lysates from CHO Flp-In, CHO Flp-In T-Rex or HEK293 Flp-In expressing full-length SSAO (untagged) were subsequently tested and activity confirmed (Table 4).

[2] = biological target: T2, human SSAO, full-length, C-terminal 6xHIS tag (Homo sapiens, UniProt Q16853); test: Benzylamine stability in lysate of cells expressing full-length SSAO with C-terminal 6xHIS tag, LC/MS/MS; assay type: in vitro ADME
T2 construct: expressed in transfected cells; cell lysate
T2 sequence (Q16853 1-763): T1 sequence (Q16853 1-763)
Method: as §1, §2, §3, §4
LC/MS/MS analysis was performed with a PE Sciex API 3000 mass spectrometer under the following conditions listed below and in Tables 1 and 2: […]

- Benzylamine Remaining (%) ([1]; CHO Flp-In T-Rex lysate, Full-length SSAO, tag None, 0 min (Table 3)): 100%
- Benzylamine Remaining (%) ([1]; CHO Flp-In T-Rex lysate, Full-length SSAO, tag None, 10 min (Table 3)): 6%
- Benzylamine Remaining (%) ([1]; CHO Flp-In T-Rex lysate, Full-length SSAO, tag None, 2 h (Table 3)): 0%
- Benzylamine Remaining (%) ([1]; CHO Flp-In T-Rex, full-length SSAO (untagged), 0 min, subsequent test (Table 4)): 100%
- Benzylamine Remaining (%) ([1]; CHO Flp-In T-Rex, full-length SSAO (untagged), 10 min, subsequent test (Table 4)): 16%
- Benzylamine Remaining (%) ([1]; CHO Flp-In T-Rex, full-length SSAO (untagged), 30 min, subsequent test (Table 4)): 1%
- Benzylamine Remaining (%) ([1]; CHO Flp-In lysate, Full-length SSAO, tag None, 0 min (Table 3)): 100%
- Benzylamine Remaining (%) ([1]; CHO Flp-In lysate, Full-length SSAO, tag None, 10 min (Table 3)): 1%
- Benzylamine Remaining (%) ([1]; CHO Flp-In lysate, Full-length SSAO, tag None, 2 h (Table 3)): 1%
- Benzylamine Remaining (%) ([1]; CHO Flp-In, full-length SSAO (untagged), 0 min, subsequent test (Table 4)): 100%
- Benzylamine Remaining (%) ([1]; CHO Flp-In, full-length SSAO (untagged), 10 min, subsequent test (Table 4)): 9%
- Benzylamine Remaining (%) ([1]; CHO Flp-In, full-length SSAO (untagged), 30 min, subsequent test (Table 4)): 1%
- Benzylamine Remaining (%) ([1]; HEK293 Flp-In, full-length SSAO (untagged), 0 min, subsequent test (Table 4)): 100%
- Benzylamine Remaining (%) ([1]; HEK293 Flp-In, full-length SSAO (untagged), 10 min, subsequent test (Table 4)): 50%
- Benzylamine Remaining (%) ([1]; HEK293 Flp-In, full-length SSAO (untagged), 30 min, subsequent test (Table 4)): 9%
- Benzylamine Remaining (%) ([1]; HEK293 lysate, Full-length SSAO, tag None, 0 min (Table 3)): 100%
- Benzylamine Remaining (%) ([1]; HEK293 lysate, Full-length SSAO, tag None, 10 min (Table 3)): 58%
- Benzylamine Remaining (%) ([1]; HEK293 lysate, Full-length SSAO, tag None, 2 h (Table 3)): 2%
- Benzylamine Remaining (%) ([2]; CHO Flp-In T-Rex lysate, 0 min): 100%
- Benzylamine Remaining (%) ([2]; CHO Flp-In T-Rex lysate, 10 min): 94%
- Benzylamine Remaining (%) ([2]; CHO Flp-In T-Rex lysate, 2 h): 59%
- Benzylamine Remaining (%) ([2]; CHO Flp-In lysate, 0 min): 100%
- Benzylamine Remaining (%) ([2]; CHO Flp-In lysate, 10 min): 101%
- Benzylamine Remaining (%) ([2]; CHO Flp-In lysate, 2 h): 73%
- Benzylamine Remaining (%) ([2]; HEK293 lysate, 0 min): 100%
- Benzylamine Remaining (%) ([2]; HEK293 lysate, 10 min): 105%
- Benzylamine Remaining (%) ([2]; HEK293 lysate, 2 h): 98%
Structure (SMILES): NCc1ccccc1 [Benzylamine]
